Calls of active or inactive are those of the source. The calls are words filed in the database; no cut-off is given here.
Experiments:
[1] = biological target: T1, Tyrosine-protein kinase JAK3 (Homo sapiens, UniProt P52333)
T1 sequence (P52333 whole entry): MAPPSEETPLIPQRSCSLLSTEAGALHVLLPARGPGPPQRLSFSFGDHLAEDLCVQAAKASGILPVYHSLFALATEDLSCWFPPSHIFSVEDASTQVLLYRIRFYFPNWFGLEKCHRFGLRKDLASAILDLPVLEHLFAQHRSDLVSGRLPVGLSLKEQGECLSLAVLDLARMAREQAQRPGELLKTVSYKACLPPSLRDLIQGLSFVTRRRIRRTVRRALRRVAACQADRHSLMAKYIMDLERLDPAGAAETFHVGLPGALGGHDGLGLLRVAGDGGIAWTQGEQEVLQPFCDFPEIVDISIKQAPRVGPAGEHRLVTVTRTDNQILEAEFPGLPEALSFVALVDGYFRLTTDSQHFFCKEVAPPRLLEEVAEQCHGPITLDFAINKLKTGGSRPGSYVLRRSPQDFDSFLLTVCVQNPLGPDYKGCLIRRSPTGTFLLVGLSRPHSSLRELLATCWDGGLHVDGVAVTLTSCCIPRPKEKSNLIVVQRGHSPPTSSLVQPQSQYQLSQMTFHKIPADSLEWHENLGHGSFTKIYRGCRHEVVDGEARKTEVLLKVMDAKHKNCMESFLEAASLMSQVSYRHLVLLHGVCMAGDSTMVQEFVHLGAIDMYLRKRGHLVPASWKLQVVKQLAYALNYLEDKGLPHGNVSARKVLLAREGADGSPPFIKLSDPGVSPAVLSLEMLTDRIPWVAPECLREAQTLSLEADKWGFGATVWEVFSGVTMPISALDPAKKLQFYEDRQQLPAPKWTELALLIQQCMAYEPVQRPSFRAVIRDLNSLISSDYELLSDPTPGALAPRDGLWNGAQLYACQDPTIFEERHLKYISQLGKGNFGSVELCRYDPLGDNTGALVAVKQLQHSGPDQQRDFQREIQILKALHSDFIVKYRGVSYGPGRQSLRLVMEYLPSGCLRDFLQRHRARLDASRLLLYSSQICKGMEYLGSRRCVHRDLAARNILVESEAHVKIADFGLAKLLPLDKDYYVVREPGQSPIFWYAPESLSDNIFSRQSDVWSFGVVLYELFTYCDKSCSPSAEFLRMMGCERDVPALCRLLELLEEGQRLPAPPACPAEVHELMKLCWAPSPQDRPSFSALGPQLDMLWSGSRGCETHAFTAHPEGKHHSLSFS
Description: Covalent inhibition of recombinant recombinant human GST-tagged JAK3(781 to 1124 residues) expressed in baculovirus expression system incubated for 1 hr in the presence of ATP by FRET based Z'-LYTE assay

[2] = test system: U-937; assay: Antiproliferative activity against human U-937 cells harbouring JAK3 M511 mutation assessed as reduction in cell viability incubated for 72 hrs by CCK-8 assay; assay type: functional, cell-based; settings: U-937, 72 h
[3] = Selectivity ratio of IC50 for inhibition of BTK (unknown origin) to IC50 for covalent inhibition of recombinant human GST-tagged JAK3 (781 to 1124 residues) expressed in baculovirus expression system
[4] = biological target: Tyrosine-protein kinase JAK1 (Homo sapiens, UniProt P23458); assay: Inhibition of JAK1 (unknown origin) incubated for 1 hr in the presence of ATP by FRET based Z'-LYTE assay
[5] = biological target: Non-receptor tyrosine-protein kinase TYK2 (Homo sapiens, UniProt P29597); assay: Inhibition of TYK2 (unknown origin) incubated for 1 hr in the presence of ATP by FRET based Z'-LYTE assay
[6] = biological target: T2, Tyrosine-protein kinase JAK3 (Homo sapiens) (UniProt P52333); assay: Inhibition of JAK3 phosphorylation in human U-937 cells measured after 12 hrs by Western blotting analysis; assay type: cell-based; settings: dose 12.5-200 nM, DDE = dose-dependent effect
T2 sequence (whole entry): T1 sequence (P52333 whole entry)

[7] = biological target: Tyrosine-protein kinase BTK (Homo sapiens, UniProt Q06187); assay: Inhibition of BTK (unknown origin) incubated for 1 hr in the presence of ATP by FRET based Z'-LYTE assay
[8] = biological target: T3, Signal transducer and activator of transcription 5A (Homo sapiens) (UniProt P42229); assay: Inhibition of STAT5 phosphorylation in human U-937 cells at 200 nM preincubated for 6 hrs followed by compound washout and measured upto 24 hrs by Western blotting analysis; assay type: cell-based
T3 sequence (whole entry): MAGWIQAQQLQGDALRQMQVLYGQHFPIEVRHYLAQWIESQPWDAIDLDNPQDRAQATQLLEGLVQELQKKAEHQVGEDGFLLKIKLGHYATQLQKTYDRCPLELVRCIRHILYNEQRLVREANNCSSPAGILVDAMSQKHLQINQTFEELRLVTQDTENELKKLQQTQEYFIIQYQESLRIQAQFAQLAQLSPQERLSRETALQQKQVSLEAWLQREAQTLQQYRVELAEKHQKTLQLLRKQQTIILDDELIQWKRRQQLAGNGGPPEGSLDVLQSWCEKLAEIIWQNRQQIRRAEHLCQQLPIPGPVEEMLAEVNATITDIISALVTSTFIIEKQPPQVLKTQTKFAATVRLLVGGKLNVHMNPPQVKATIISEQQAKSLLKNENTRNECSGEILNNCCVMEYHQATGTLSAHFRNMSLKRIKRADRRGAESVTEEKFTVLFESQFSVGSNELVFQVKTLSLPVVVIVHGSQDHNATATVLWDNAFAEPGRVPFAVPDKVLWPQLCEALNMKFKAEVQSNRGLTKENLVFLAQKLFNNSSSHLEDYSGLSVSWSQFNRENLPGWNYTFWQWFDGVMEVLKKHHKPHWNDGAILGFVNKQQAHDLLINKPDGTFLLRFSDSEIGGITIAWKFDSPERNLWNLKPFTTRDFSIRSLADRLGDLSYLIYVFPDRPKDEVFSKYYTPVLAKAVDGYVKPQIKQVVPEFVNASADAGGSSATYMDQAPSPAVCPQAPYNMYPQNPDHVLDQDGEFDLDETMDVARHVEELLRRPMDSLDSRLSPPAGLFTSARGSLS

[9] = test system: Jurkat; assay: Antiproliferative activity against human Jurkat cells assessed as reduction in cell viability incubated for 72 hrs by CCK-8 assay; assay type: functional, cell-based
[10] = Selectivity ratio of IC50 for inhibition of wild type EGFR (unknown origin) to IC50 for covalent inhibition of recombinant human GST-tagged JAK3 (781 to 1124 residues) expressed in baculovirus expression system
[11] = test system: MDA-MB-231; assay: Antiproliferative activity against human MDA-MB-231 cells assessed as reduction in cell viability incubated for 72 hrs by CCK-8 assay; assay type: functional, cell-based; settings: MDA-MB-231, 72 h
[12] = biological target: Tyrosine-protein kinase JAK2 (Homo sapiens, UniProt O60674); assay: Inhibition of JAK2 (unknown origin) incubated for 1 hr in the presence of ATP by FRET based Z'-LYTE assay
[13] = test system: Daudi; assay: Antiproliferative activity against human Daudi cells assessed as reduction in cell viability incubated for 72 hrs by CCK-8 assay; assay type: functional, cell-based
[14] = test system: HCT-116; assay: Antiproliferative activity against human HCT-116 cells assessed as reduction in cell viability incubated for 72 hrs by CCK-8 assay; assay type: functional, cell-based; settings: HCT-116, 72 h
[15] = biological target: Epidermal growth factor receptor (Homo sapiens, UniProt P00533); assay: Inhibition of wild type EGFR (unknown origin) incubated for 1 hr in the presence of ATP by FRET based Z'-LYTE assay
[16] = test system: U-937; assay: Effect on JAK3 protein level in human U-937 cells at 12.5 to 200 nM measured after 12 hrs by Western blotting analysis; assay type: functional, cell-based; settings: dose 12.5-200 nM
[17] = biological target: T2, Tyrosine-protein kinase JAK3 (Homo sapiens); assay: Inhibition of JAK3 phosphorylation in human U-937 cells at 200 nM preincubated for 6 hrs followed by compound washout and measured upto 24 hrs by Western blotting analysis; assay type: cell-based
[18] = biological target: T3, Signal transducer and activator of transcription 5A (Homo sapiens); assay: Inhibition STAT5 phosphorylation in human U-937 cells measured after 12 hrs by Western blotting analysis; assay type: cell-based; settings: dose 12.5-200 nM, DDE = dose-dependent effect
[19] = test system: OCI-Ly3; assay: Antiproliferative activity against human OCILY3 cells assessed as reduction in cell viability incubated for 72 hrs by CCK-8 assay; assay type: functional, cell-based; settings: OCI-Ly3, 72 h
[20] = biological target: Epidermal growth factor receptor (Homo sapiens, UniProt P00533, T790M); assay: Inhibition of EGFR T790M mutant (unknown origin) incubated for 1 hr in the presence of ATP by FRET based Z'-LYTE assay
[21] = Selectivity ratio of IC50 for inhibition of EGFR T790M mutant (unknown origin) to IC50 for covalent inhibition of recombinant human GST-tagged JAK3 (781 to 1124 residues) expressed in baculovirus expression system
[22] = test system: MOLT-4; assay: Antiproliferative activity against human MOLT-4 cells assessed as reduction in cell viability incubated for 72 hrs by CCK-8 assay; assay type: functional, cell-based; settings: MOLT-4, 72 h
[23] = test system: U-937; assay: Effect on STAT5 protein level in human U-937 cells at 12.5 to 200 nM measured after 12 hrs by Western blotting analysis; assay type: functional, cell-based; settings: dose 12.5-200 nM
[24] = test system: COLO 205; assay: Antiproliferative activity against human COLO 205 cells assessed as reduction in cell viability incubated for 72 hrs by CCK-8 assay; assay type: functional, cell-based; settings: COLO 205, 72 h
[25] = test system: NCI-H1299; assay: Antiproliferative activity against human NCI-H1299 cells assessed as reduction in cell viability incubated for 72 hrs by CCK-8 assay; assay type: functional, cell-based; settings: NCI-H1299, 72 h
[26] = biological target: T1, Tyrosine-protein kinase JAK3; assay: Inhibition of JAK3 (unknown origin) incubated for 1 hr in the presence of ATP by FRET based Z'-LYTE assay

Tyrosine-protein kinase JAK2, sequence (O60674 whole entry): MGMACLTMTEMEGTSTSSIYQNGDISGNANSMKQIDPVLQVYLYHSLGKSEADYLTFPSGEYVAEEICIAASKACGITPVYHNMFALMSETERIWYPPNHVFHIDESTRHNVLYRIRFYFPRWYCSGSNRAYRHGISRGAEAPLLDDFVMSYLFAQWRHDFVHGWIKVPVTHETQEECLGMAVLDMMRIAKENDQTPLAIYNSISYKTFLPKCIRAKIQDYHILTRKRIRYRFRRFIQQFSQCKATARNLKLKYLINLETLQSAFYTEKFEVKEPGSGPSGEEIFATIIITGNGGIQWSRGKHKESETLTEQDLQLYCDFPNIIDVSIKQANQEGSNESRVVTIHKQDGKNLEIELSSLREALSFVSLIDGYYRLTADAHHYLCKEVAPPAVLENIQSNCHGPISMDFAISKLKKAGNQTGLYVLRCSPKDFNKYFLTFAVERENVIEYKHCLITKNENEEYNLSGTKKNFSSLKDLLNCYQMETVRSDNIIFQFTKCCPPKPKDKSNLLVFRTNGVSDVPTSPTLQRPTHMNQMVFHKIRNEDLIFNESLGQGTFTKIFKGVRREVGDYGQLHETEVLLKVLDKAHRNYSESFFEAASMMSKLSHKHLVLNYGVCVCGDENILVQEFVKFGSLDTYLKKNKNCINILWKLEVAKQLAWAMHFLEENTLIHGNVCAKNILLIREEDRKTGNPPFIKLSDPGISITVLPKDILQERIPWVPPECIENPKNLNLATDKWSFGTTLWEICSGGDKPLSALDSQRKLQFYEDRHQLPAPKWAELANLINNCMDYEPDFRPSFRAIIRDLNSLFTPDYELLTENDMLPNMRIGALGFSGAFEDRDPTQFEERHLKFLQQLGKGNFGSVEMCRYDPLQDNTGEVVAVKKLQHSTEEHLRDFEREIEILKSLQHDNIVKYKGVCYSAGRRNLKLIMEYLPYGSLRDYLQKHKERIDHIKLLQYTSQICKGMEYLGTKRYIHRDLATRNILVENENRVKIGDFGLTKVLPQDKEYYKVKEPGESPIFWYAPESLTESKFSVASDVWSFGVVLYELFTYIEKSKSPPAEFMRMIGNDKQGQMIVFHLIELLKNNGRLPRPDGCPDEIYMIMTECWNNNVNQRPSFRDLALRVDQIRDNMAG
Epidermal growth factor receptor (Homo sapiens, UniProt P00533), sequence (P00533 whole entry): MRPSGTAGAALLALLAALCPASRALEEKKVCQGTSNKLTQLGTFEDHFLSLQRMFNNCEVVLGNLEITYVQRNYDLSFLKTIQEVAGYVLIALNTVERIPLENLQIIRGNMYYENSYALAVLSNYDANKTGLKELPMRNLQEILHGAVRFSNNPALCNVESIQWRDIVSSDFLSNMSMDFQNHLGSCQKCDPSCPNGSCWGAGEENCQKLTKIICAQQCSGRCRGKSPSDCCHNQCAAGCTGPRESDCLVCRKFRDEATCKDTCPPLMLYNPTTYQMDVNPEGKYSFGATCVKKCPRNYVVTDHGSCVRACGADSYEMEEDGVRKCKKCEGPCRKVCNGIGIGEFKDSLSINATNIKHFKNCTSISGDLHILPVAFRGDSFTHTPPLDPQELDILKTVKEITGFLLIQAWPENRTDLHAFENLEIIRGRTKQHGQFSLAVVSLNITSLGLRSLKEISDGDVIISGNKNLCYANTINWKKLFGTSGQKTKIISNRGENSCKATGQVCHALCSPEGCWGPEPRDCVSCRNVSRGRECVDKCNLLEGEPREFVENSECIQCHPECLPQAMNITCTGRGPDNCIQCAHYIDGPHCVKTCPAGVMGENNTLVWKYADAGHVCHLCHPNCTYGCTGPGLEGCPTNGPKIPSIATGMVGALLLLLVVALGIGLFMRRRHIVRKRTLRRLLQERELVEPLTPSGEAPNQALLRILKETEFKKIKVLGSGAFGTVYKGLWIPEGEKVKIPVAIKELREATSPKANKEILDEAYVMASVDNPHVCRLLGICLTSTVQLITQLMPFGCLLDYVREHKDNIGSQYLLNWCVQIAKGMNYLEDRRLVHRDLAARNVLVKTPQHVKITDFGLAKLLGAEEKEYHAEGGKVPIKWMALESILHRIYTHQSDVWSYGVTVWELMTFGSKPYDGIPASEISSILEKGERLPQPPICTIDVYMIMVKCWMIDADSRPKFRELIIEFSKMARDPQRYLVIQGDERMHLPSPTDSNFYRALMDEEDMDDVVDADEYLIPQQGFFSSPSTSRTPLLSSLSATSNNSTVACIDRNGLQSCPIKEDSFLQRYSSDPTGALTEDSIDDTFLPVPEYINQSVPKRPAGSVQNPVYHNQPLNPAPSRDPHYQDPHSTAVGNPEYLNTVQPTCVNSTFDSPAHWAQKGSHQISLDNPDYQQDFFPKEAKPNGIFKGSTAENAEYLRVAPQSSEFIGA
Tyrosine-protein kinase JAK1, sequence (P23458 whole entry): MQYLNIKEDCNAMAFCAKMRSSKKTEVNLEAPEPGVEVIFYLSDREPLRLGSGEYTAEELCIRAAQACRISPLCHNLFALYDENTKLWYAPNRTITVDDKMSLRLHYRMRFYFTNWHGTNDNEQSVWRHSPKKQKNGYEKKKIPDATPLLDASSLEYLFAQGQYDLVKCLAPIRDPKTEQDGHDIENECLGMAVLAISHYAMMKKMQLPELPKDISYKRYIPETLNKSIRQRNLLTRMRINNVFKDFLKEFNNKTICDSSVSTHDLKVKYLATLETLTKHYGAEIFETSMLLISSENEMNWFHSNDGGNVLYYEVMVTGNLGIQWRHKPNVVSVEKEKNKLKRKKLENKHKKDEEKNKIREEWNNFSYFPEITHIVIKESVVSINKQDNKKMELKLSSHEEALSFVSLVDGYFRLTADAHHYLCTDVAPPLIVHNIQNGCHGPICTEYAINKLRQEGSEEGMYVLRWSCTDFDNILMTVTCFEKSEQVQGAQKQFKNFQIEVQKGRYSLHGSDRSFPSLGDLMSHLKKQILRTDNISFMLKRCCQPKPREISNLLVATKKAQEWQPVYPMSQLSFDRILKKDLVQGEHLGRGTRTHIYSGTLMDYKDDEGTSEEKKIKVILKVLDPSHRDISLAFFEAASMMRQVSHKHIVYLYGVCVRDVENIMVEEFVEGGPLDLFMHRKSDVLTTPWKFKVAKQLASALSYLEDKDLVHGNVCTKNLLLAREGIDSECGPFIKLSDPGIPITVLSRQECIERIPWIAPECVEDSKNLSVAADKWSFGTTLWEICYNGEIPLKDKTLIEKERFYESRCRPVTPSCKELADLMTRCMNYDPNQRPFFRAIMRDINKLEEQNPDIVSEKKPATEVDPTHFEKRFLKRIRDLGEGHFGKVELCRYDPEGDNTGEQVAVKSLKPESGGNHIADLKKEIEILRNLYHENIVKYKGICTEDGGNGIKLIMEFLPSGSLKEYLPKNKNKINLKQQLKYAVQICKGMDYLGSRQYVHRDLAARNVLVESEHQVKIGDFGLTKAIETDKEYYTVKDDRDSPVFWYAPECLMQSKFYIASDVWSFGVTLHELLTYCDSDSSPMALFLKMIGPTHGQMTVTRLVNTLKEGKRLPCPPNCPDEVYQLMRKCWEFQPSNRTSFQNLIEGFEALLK
Epidermal growth factor receptor (Homo sapiens, UniProt P00533, T790M), sequence (P00533 25-1210 T790M limits assumed): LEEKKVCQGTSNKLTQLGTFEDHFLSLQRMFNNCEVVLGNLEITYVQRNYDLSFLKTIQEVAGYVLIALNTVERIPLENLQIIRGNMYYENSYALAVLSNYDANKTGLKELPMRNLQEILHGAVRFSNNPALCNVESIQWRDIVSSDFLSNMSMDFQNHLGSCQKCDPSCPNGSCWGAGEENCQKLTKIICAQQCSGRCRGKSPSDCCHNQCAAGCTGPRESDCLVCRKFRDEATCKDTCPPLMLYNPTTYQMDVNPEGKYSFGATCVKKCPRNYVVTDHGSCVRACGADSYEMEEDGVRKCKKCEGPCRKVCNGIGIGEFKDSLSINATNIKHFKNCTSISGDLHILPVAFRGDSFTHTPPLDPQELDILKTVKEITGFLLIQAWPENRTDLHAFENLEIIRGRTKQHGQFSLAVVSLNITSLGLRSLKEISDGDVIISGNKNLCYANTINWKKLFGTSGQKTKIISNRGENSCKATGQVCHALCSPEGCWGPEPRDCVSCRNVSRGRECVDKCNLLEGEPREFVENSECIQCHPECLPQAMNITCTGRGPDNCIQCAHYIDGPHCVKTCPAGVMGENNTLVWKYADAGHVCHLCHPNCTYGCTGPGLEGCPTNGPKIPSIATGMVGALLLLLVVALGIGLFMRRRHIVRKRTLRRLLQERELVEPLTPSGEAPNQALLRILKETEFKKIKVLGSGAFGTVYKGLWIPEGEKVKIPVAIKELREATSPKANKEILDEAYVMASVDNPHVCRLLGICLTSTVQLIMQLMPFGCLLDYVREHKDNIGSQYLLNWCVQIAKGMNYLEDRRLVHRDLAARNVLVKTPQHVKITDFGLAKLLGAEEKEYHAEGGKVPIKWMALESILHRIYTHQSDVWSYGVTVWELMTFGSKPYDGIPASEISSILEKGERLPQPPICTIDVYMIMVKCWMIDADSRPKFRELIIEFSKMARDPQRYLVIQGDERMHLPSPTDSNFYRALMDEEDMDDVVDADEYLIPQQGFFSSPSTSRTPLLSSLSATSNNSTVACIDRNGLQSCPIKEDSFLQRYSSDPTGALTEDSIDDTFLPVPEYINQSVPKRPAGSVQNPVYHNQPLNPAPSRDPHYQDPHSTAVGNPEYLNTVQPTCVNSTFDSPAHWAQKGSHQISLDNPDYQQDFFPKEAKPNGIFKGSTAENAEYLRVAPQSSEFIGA

`C=CC(=O)Nc1ccc(Cn2c(=O)ccc3cnc(Nc4ccccc4OC)nc32)cc1` showed an IC50 [1] of 72.1 nM.

Compound `C=CC(=O)Nc1cccc(Cn2c(=O)ccc3cnc(Nc4cnn(CCOC)c4)nc32)c1` has an IC50 [2] of 430 nM and an IC50 [1] of 3.3 nM.

With `C=CC(=O)Nc1cccc(Cn2c(=O)ccc3cnc(Nc4ccccc4OC)nc32)c1` the IC50 [2] was 2020 nM and the IC50 [1] was 3 nM.

With `C=CC(=O)Nc1cccc(Cn2c(=O)cc(C3CC3)c3cnc(Nc4ccc(N5CCN(C)CC5)cc4OC)nc32)c1` the IC50 [1] was 1450 nM.

In the case of `C=CC(=O)Nc1cccc(Cn2c(=O)ccc3cnc(Nc4ccc(C5CCN(C)CC5)cc4OC)nc32)c1`, the IC50 [2] is reported as 520 nM and the IC50 [1] is reported as 4.1 nM.

In the case of `C=CC(=O)Nc1cccc(Cn2c(=O)ccc3cnc(Nc4ccc(N5CCN(C(C)=O)CC5)cc4OC)nc32)c1`, the IC50 [2] is reported as 540 nM and the IC50 [1] is reported as 3.3 nM.

In the case of `C=CC(=O)Nc1cccc(Cn2c(=O)cc(C)c3cnc(Nc4ccc(N5CCN(C)CC5)cc4OC)nc32)c1`, the IC50 [1] is reported as 18.2 nM.

`C=CC(=O)Nc1cccc(Cn2c(=O)cc(CC)c3cnc(Nc4ccc(N5CCN(C)CC5)cc4OC)nc32)c1` showed an IC50 [1] of 20 nM.

For `CCC(=O)Nc1cccc(Cn2c(=O)ccc3cnc(Nc4ccccc4OC)nc32)c1`, the IC50 [1] was > 10000 nM.

In the case of `C=CC(=O)Nc1cccc(Cn2c(=O)ccc3cnc(Nc4ccc(N5CCN(C)CC5)cc4OCC)nc32)c1`, the IC50 [2] is reported as 1810 nM and the IC50 [1] is reported as 9.8 nM.

For `C=CC(=O)N1C[C@H](Nc2ncnc3[nH]ccc23)CC[C@@H]1C` [RITLECITINIB], the IC50 [2] was 40 nM.

For `C=CC(=O)Nc1cccc(Cn2c(=O)ccc3cnc(Nc4ccc(N5CCN(C)CC5)cc4OC(C)C)nc32)c1`, the IC50 [1] was 1300 nM.

With `C=CC(=O)Nc1cccc(Cn2c(=O)ccc3cnc(Nc4ccc(N5CCN(C)CC5)cc4)nc32)c1` the Ratio IC50 [3] was 8, the IC50 [2] was 50 nM and the IC50 [1] was 2 nM. The IC50 [4] was 2430 nM, the IC50 [5] was 8880 nM and the inhibition [6] was “Dde”. The IC50 [7] was 15.6 nM, the inhibition [8] was “Active” and the IC50 [9] was 2280 nM. The Ratio IC50 [10] was > 100, the IC50 [11] was 3030 nM and the IC50 [12] was 1130 nM. It also gave an IC50 [13] of 2070 nM, an IC50 [14] of 3690 nM and an IC50 [15] of 261 nM. The Activity [16] was “Active”, the inhibition [17] was “Active” and the inhibition [18] was “Dde”. The IC50 [19] was 1530 nM, the IC50 [20] was 216 nM and the Ratio IC50 [21] was > 100. For the same compound, the IC50 [22] was 2250 nM, the Activity [23] was “Active” and the IC50 [24] was 3840 nM. The IC50 [25] was 4780 nM.

`C=CC(=O)Nc1cccc(Cn2c(=O)ccc3cnc(Nc4cnn(CCO)c4)nc32)c1` gave an IC50 [2] of 470 nM and an IC50 [1] of 1.7 nM.

Work on `C=CC(=O)Nc1cccc(Cn2c(=O)ccc3cnc(Nc4ccc(N5CCN(C)CC5)cc4OC)nc32)c1` yielded an IC50 [2] of 470 nM and an IC50 [1] of 1.6 nM.

In the case of `C=CC(=O)Nc1cccc(-n2c(=O)cc(C)c3cnc(Nc4ccc(N5CCN(C)CC5)cc4OC)nc32)c1`, the IC50 [26] is reported as 31.3 nM.

`C=CC(=O)Nc1cccc(Cn2c(=O)ccc3cnc(Nc4cnn(C5CCN(C)CC5)c4)nc32)c1` showed an IC50 [2] of 70 nM and an IC50 [1] of 2 nM.

With `C/C=C/C(=O)Nc1cccc(Cn2c(=O)ccc3cnc(Nc4ccccc4OC)nc32)c1` the IC50 [1] was 4800 nM.

With `C=CC(=O)Nc1cccc(Cn2c(=O)cc(CCC)c3cnc(Nc4ccc(N5CCN(C)CC5)cc4OC)nc32)c1` the IC50 [1] was > 10000 nM.

`C=CC(=O)Nc1cccc(Cn2c(=O)ccc3cnc(Nc4ccc(N(C)CCN(C)C)cc4OC)nc32)c1` showed an IC50 [2] of 520 nM and an IC50 [1] of 3.1 nM.

For `C=CC(=O)Nc1ccccc1Cn1c(=O)ccc2cnc(Nc3ccccc3OC)nc21`, the IC50 [1] was > 10000 nM.

For `C=CC(=O)Nc1cccc(Cn2c(=O)ccc3cnc(Nc4cnn(C)c4)nc32)c1`, the IC50 [2] was 220 nM and the IC50 [1] was 1.8 nM.

Reference: ChEMBL document CHEMBL5143636, “Design, synthesis and structure-activity relationship studies of pyrido[2,3-d]pyrimidin-7-ones as potent Janus Kinase 3 (JAK3) covalent inhibitors” (Bioorg Med Chem Lett, 2022)
